Reference: ChEMBL document CHEMBL6153079, “Discovery of noncovalent diaminopyrimidine-based Inhibitors for glioblastoma via a dual FAK/DNA targeting strategy” (Eur J Med Chem, 2025)
Activity calls are given as the source filed them. The rule behind the calls is not given here.

Columns and labels:
U-251 = assay: Antiproliferative activity against human U-251 assessed as cell viability incubated for 48 hrs by MTT assay; format: functional, cell-based; details: U-251, 48 h
U-87 MG [1] = assay: Antiproliferative activity against human U-87 MG assessed as cell viability incubated for 48 hrs by MTT assay; format: functional, cell-based, U-87MG ATCC
Focal adhesion kinase 1 [2] = biological target: T1, Focal adhesion kinase 1 (Homo sapiens, UniProt Q05397); assay: Inhibition of FAK (unknown origin) at 50 nM relative to control
Target sequence in this assay (Q05397 2-1052 limits assumed): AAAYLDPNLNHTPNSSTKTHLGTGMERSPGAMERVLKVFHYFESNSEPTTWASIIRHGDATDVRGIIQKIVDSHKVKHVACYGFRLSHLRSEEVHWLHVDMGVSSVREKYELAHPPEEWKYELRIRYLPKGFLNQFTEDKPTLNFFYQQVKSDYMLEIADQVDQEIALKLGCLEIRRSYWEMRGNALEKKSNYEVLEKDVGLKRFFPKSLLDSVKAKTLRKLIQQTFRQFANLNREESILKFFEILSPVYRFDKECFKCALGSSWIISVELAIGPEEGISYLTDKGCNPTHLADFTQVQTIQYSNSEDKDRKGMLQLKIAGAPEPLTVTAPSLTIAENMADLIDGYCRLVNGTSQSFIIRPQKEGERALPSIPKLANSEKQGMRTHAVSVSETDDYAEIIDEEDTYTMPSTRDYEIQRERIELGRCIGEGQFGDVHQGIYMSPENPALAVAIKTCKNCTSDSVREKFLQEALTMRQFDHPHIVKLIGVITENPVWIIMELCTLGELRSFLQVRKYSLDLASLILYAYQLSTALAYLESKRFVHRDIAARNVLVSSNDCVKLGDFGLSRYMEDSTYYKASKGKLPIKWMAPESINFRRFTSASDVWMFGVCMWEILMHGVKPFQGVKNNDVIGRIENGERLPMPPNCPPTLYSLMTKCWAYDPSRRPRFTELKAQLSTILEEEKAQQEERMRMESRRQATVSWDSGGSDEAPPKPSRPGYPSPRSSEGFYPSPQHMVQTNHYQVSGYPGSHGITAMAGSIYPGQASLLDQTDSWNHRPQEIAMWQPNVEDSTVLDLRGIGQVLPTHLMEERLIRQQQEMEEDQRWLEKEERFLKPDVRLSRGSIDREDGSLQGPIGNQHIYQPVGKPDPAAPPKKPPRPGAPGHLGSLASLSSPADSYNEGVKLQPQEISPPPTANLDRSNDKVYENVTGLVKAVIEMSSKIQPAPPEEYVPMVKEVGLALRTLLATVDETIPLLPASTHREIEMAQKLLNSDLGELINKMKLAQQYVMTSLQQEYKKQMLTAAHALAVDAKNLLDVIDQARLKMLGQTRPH

Focal adhesion kinase 1 [3] = biological target: T1, Focal adhesion kinase 1; assay: Inhibition of FAK (unknown origin) at 10 nM relative to control
Target sequence in this assay (Q05397 2-1052 limits assumed): as above

Focal adhesion kinase 1 [4] = biological target: T1, Focal adhesion kinase 1; assay: Inhibition of FAK (unknown origin) preincubated for 10 mins followed by ATP and substrate addition and measured after 50 mins by HTRF analysis
Target sequence in this assay (Q05397 whole entry): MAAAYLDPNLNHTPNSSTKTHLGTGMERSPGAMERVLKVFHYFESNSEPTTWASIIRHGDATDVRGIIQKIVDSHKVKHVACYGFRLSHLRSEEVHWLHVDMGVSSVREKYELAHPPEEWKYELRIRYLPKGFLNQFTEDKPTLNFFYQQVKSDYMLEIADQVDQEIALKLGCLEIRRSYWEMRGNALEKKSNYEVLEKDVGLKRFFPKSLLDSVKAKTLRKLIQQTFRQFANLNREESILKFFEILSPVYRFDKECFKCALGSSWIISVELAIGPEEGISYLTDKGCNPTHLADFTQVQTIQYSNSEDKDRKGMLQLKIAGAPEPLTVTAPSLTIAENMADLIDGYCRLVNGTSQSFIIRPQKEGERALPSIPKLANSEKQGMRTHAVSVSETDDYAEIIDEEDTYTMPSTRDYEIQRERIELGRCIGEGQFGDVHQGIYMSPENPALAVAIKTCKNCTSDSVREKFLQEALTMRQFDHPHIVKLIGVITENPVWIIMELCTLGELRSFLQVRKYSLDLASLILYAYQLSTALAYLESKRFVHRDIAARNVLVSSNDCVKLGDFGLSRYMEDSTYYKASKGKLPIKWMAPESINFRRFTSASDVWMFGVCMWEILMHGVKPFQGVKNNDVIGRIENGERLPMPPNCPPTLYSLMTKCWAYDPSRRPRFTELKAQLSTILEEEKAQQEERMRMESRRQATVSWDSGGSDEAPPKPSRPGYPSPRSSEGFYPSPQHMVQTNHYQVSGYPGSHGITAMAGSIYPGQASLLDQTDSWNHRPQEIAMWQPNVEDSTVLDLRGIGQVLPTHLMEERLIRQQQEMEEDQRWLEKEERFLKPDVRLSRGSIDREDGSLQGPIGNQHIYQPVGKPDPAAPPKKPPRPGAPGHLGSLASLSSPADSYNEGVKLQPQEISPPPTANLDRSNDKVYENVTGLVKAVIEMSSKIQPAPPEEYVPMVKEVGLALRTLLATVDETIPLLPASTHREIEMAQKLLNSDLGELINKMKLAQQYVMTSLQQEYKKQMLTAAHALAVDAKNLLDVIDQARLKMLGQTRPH

[5] = Cytotoxicity against human LO2 assessed as cell viability incubated for 48 hrs by MTT assay; format: toxicity, cell-based, L02; details: LO2 cells
[6] = Cytotoxicity against human 2BS assessed as cell viability incubated for 48 hrs by MTT assay; format: toxicity, cell-based; details: 2BS cells
[7] = Distribution coefficient, logD of compound in n-Octanol/water at pH 7.4; format: physicochemical
[8] = Selectivity ratio of IC50 for cytotoxicity against human LO2 assessed as cell viability to IC50 for antiproliferative activity against human U-251 assessed as cell viability; format: toxicity; details: LO2 cells versus U-251 cells, read-out: Ratio IC50
[9] = Selectivity ratio of IC50 for cytotoxicity against human LO2 assessed as cell viability to IC50 for antiproliferative activity against human U-87 MG assessed as cell viability; format: toxicity; details: LO2 cells versus U-87 MG cells, read-out: Ratio IC50
U-87 MG [10] = assay: Induction of DNA damage in human U-87 MG cells assessed as comet tail moment at 0.1 to 2 uM incubated for 2.5 to 3 hrs by comet assay; format: functional; details: U-87MG ATCC, time 2.5-3 hrs
[11] = Effective permeability of compound at pH 7.4 incubated for 16 hrs by LCMS analysis; format: ADME; details: pH 7.4, 16 h

SMILES | IC50 (U-251) | IC50 (U-87 MG [1]) | inhibition (Focal adhesion kinase 1 [2]) | inhibition (Focal adhesion kinase 1 [3]) | IC50 (Focal adhesion kinase 1 [4]) | IC50 at 48 h [5] | IC50 at 48 h [6] | logD [7] | selectivity ratio [8] | selectivity ratio [9] | Activity (U-87 MG [10]) | Peff [11]
CNC(=O)c1ccccc1Nc1nc(Nc2ccc(N3CCN(CCOC(=O)CCCc4ccc(N(CCCl)CCCl)cc4)CC3)cc2)ncc1[N+](=O)[O-] | 849 nM | 605 nM | 75.4% | 36.5% | – | – | – | – | – | – | – | –
CNC(=O)c1ccccc1Nc1nc(Nc2ccc(N3CCN(CCOC(=O)CCCc4ccc(N(CCCl)CCCl)cc4)CC3)cc2)ncc1C | 168 nM | 42 nM | 97.5% | 65.8% | – | – | – | – | – | – | – | –
CNC(=O)c1ccccc1Nc1nc(Nc2ccc(N3CCN(C(=O)CCCc4ccc(N(CCCl)CCCl)cc4)CC3)cc2OC)ncc1Cl | > 50000 nM | 18000 nM | 67.3% | 32.2% | – | – | – | – | – | – | – | –
CNC(=O)c1ccccc1Nc1nc(Nc2ccc(N3CCN(C)CC3)cc2)ncc1Cl | 64 nM | 17 nM | 80.2% | 76.4% | 3.2 nM | 801 nM | 11600 nM | 3.1 | > 40 | > 40 | inactive | –
CNC(=O)c1ccccc1Nc1nc(Nc2ccc(N3CCN(C(=O)CCCc4ccc(N(CCCl)CCCl)cc4)CC3)cc2)ncc1Cl | 3700 nM | 990 nM | 74.2% | 55.4% | – | – | – | – | – | – | – | –
CNC(=O)c1ccccc1Nc1nc(Nc2ccc(N3CCN(CCOC(=O)CCCc4ccc(N(CCCl)CCCl)cc4)CC3)cc2)ncc1Br | 81 nM | 30 nM | 94.2% | 68.4% | – | – | – | – | – | – | – | –
CNC(=O)c1ccccc1Nc1nc(Nc2ccc(N3CCNCC3)cc2)ncc1Cl | 79 nM | 36 nM | 78.6% | 67.9% | – | – | – | – | – | – | – | –
O=C(O)CCCc1ccc(N(CCCl)CCCl)cc1 [CHLORAMBUCIL] | > 50000 nM | > 50000 nM | 8.54% | 2.77% | – | – | – | – | – | – | – | –
CNC(=O)c1ccccc1Nc1nc(Nc2ccc(N3CCN(CCOC(=O)CCCc4ccc(N(CCCl)CCCl)cc4)CC3)cc2)ncc1Cl | 485 nM | 95 nM | 94.5% | 79.8% | – | – | – | – | – | – | – | –
CNC(=O)c1ccccc1Nc1nc(Nc2ccc(N3CCN(CCO)CC3)cc2)ncc1Cl | 194 nM | 62 nM | 77.9% | 67.7% | – | – | – | – | – | – | – | –
CNC(=O)c1ccccc1Nc1nc(Nc2ccc(C3CCN(C(=O)c4ccc(N(CCCl)CCCl)cc4)CC3)cc2)ncc1Cl | > 50000 nM | 39600 nM | 58.6% | 34% | – | – | – | – | – | – | – | –
CNC(=O)c1ccccc1Nc1nc(Nc2ccc(C3CCN(C(=O)CCCc4ccc(N(CCCl)CCCl)cc4)CC3)cc2)ncc1Cl | 18200 nM | 1400 nM | 67.5% | 56.4% | – | – | – | – | – | – | – | –
CNC(=O)c1ccccc1Nc1nc(Nc2ccc(N3CCN(CCOC(=O)c4ccc(N(CCCl)CCCl)cc4)CC3)cc2)ncc1Cl | 1210 nM | 390 nM | 78.5% | 51.9% | – | – | – | – | – | – | – | –
CNC(=O)c1ccccc1Nc1nc(Nc2ccc(N3CCN(CCOC(=O)c4ccc(N(CCCl)CCCl)cc4)CC3)cc2)ncc1C(F)(F)F | 31 nM | 27 nM | 96.4% | 81.3% | 4.28 nM | 1210 nM | 24100 nM | 5.34 | > 40 | > 40 | – | 0.001 10^-6 cm/s
CNC(=O)c1ccccc1Nc1nc(Nc2ccc(N3CCN(C(=O)c4ccc(N(CCCl)CCCl)cc4)CC3)cc2OC)ncc1Cl | > 50000 nM | > 50000 nM | 64.6% | 26.2% | – | – | – | – | – | – | – | –
CNC(=O)c1ccccc1Nc1nc(Nc2ccc(N3CCN(C(=O)c4ccc(N(CCCl)CCCl)cc4)CC3)cc2)ncc1Cl | 6260 nM | 1760 nM | 77.5% | 55.8% | – | – | – | – | – | – | – | –
